Experimental data taken from the supplement of paper PMC10307832.

Key:
Assay in all cases: relative viability (nuclei count vs DMSO), 5 days (fraction); higher = more cells survive
Crenolanib + Foretinib = compound: CC1(COc2ccc3c(c2)ncn3-c2ccc3cccc(N4CCC(N)CC4)c3n2)COC1 [Crenolanib] + COc1cc2c(Oc3ccc(NC(=O)C4(C(=O)Nc5ccc(F)cc5)CC4)cc3F)ccnc2cc1OCCCN1CCOCC1 [Foretinib] (partner 0.25 µM)
Summary of the method: (§1)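 After 5 days of treatment, lung cancer cells in 1536-well plates were fixed and stained in a single step (final 0.05% Triton X-100, 1% formaldehyde, 1 ug/ml Hoechst) and their nuclei counted on 4× images. Treatment had been applied by pin tool the day after seeding as one drug alone or as a fixed anchor-drug dose with five library-drug doses (not always all listed) in √10 steps. Relative viability is the nuclei count of treated wells divided by that of vehicle wells, and values are medians of duplicate plates.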

Tivantinib + Olaparib = compound: O=C1NC(=O)[C@@H](c2cn3c4c(cccc24)CCC3)[C@@H]1c1c[nH]c2ccccc12 [Tivantinib] + O=C(c1cc(Cc2n[nH]c(=O)c3ccccc23)ccc1F)N1CCN(C(=O)C2CC2)CC1 [Olaparib] (partner 8 µM)
Summary of the method: as §1

Tivantinib + Tozasertib = compound: O=C1NC(=O)[C@@H](c2cn3c4c(cccc24)CCC3)[C@@H]1c1c[nH]c2ccccc12 [Tivantinib] + Cc1cc(Nc2cc(N3CCN(C)CC3)nc(Sc3ccc(NC(=O)C4CC4)cc3)n2)n[nH]1 [Tozasertib] (partner 0.1 µM)
Summary of the method: as §1

Crenolanib + Pictilisib = compound: CC1(COc2ccc3c(c2)ncn3-c2ccc3cccc(N4CCC(N)CC4)c3n2)COC1 [Crenolanib] + CS(=O)(=O)N1CCN(Cc2cc3nc(-c4cccc5[nH]ncc45)nc(N4CCOCC4)c3s2)CC1 [Pictilisib] (partner 1 µM)
Summary of the method: as §1

| Cell Line | relative viability (Crenolanib + Foretinib; first compound 0.01 µM) | relative viability (Crenolanib + Foretinib; first compound 0.03162 µM) | relative viability (Crenolanib + Foretinib; first compound 0.1 µM) | relative viability (Crenolanib + Foretinib; first compound 0.3162 µM) | relative viability (Crenolanib + Foretinib; first compound 1 µM) | relative viability (Tivantinib + Olaparib; first compound 0.01 µM) | relative viability (Tivantinib + Olaparib; first compound 0.03162 µM) | relative viability (Tivantinib + Olaparib; first compound 0.1 µM) | relative viability (Tivantinib + Olaparib; first compound 0.3162 µM) | relative viability (Tivantinib + Tozasertib; first compound 0.01 µM) | relative viability (Tivantinib + Tozasertib; first compound 0.03162 µM) | relative viability (Tivantinib + Tozasertib; first compound 0.1 µM) | relative viability (Tivantinib + Tozasertib; first compound 0.3162 µM) | relative viability (Crenolanib + Pictilisib; first compound 0.01 µM) | relative viability (Crenolanib + Pictilisib; first compound 0.03162 µM) | relative viability (Crenolanib + Pictilisib; first compound 0.1 µM) | relative viability (Crenolanib + Pictilisib; first compound 0.3162 µM) | relative viability (Crenolanib + Pictilisib; first compound 1 µM) |
| --- | --- | --- | --- | --- | --- | --- | --- | --- | --- | --- | --- | --- | --- | --- | --- | --- | --- | --- |
| NCI-H1975 | 1.06 | 0.969 | 0.847 | 0.94 | 1.04 | 0.799 | 0.77 | 0.72 | 0.734 | 0.773 | 0.744 | 0.645 | 0.714 | 0.271 | 0.307 | 0.247 | 0.283 | 0.214 |
| NCI-H3122 | 0.927 | 0.98 | 0.985 | 0.963 | 1.04 | 0.643 | 0.608 | 0.584 | 0.665 | 0.409 | 0.36 | 0.508 | 0.146 | 0.549 | 0.497 | 0.561 | 0.732 | 0.738 |
| NCI-H441 | 1.13 | 1.05 | 0.775 | 0.951 | 0.958 | 0.482 | 0.552 | 0.58 | 0.744 | 0.587 | 0.655 | 0.552 | 0.474 | 0.497 | 0.502 | 0.483 | 0.527 | 0.56 |
| NCI-H2170 | 0.961 | 0.989 | 0.719 | 0.99 | 1.02 | 0.558 | 0.658 | 0.507 |  | 0.771 | 0.619 | 0.749 |  | 0.376 | 0.296 | 0.32 | 0.272 | 0.305 |
| NCI-H1395 | 1.03 | 0.97 | 1.01 | 1.07 | 0.936 | 0.513 | 0.469 | 0.44 | 0.482 | 0.76 | 0.747 | 0.718 | 0.689 | 0.655 | 0.562 | 0.708 | 0.789 | 0.553 |
| LC-2-ad | 1.1 | 1.1 | 0.858 | 0.971 | 0.823 | 0.684 | 0.685 | 0.692 | 0.706 | 0.455 | 0.409 | 0.393 | 0.313 | 0.5 | 0.446 | 0.434 | 0.465 | 0.375 |
| NCI-H358 | 0.816 | 0.666 | 0.634 | 0.701 | 0.567 | 0.633 | 0.63 | 0.505 | 0.379 | 0.109 | 0.0982 | 0.0902 | 0.0802 | 0.4 | 0.309 | 0.332 | 0.326 | 0.311 |
| PC-14 | 1.01 | 0.904 | 0.952 | 1.06 | 0.933 | 0.238 | 0.305 | 0.228 | 0.26 | 0.635 | 0.558 | 0.594 | 0.379 | 0.661 | 0.787 | 0.588 | 0.744 | 0.65 |
| CAL-12T | 1.15 | 1.05 | 1.18 | 1.33 | 1.22 | 0.731 | 0.643 | 0.677 | 0.613 | 0.416 | 0.337 | 0.259 | 0.293 | 0.45 | 0.407 | 0.519 | 0.454 | 0.44 |
